What was measured:
mushroom tyrosinase = mushroom tyrosinase (Agaricus bisporus, UniProt C7FF04); experiment: Kinetic analysis of the inhibition of tyrosinase (Lineweaver–Burk plots); assay type: biochemical; conditions: inhibitor 0.05 and 0.1 mM, L-DOPA 0.1–0.25 mM
Protocol: Based on the Lineweaver–Burk double reciprocal plots, the inhibition mode for the three investigated compounds was established as mixed-type inhibition, i.e., the type of enzyme inhibition in which the inhibitor may bind to the enzyme regardless of whether or not the enzyme has already bound the substrate. […].
A series of experiments were performed to determine the inhibition kinetics of tested carbazoles by following the already reported method. The inhibitor concentrations for tested carbazoles were 0.05 and 0.1 mM. Substrate L-DOPA concentration was between 0.1 and 0.25 mM in all kinetic studies. Maximal initial velocity was determined from the initial linear portion of absorbance up to ten minutes after addition of enzyme. The inhibition type of the enzyme, Michaelis constant (Km) and maximal velicity (Vmax), were determined by Lineweaver–Burk plots of inverse of velocities (1/V) versus inverse of substrate concentration 1/[L-DOPA] mM^−1.

[1] = Thermogravimetric analysis (thermal stability); assay type: physicochemical; conditions: TGA, 15 °C/min under nitrogen
Protocol: Thermogravimetric analysis (TGA) allowed obtaining of thermal stability results for the presented compounds (K1–K3). For all derivatives, the temperature of 5% (T5) and 10% (T10) mass loss as well as the temperature of complete decomposition (Tmax) were determined. Referring to the T5 for K1–K3, we can see that it is in the range of 222 °C to 244 °C. Such high values indicate the high durability of these compounds. Moreover, the functional group in the substituent has a negligible effect on thermal stability. The best thermal properties are those of K3 compound, containing the 4-nitrophenyl group. In the case of replacing this group with benzonitrile (K2), we observe a slight decrease in T5 (by 13 °C), T10 (by 19 °C), and only one stage of Tmax degradation. On the other hand, compound K1 has the lowest T5 (222 °C). It is most likely due to the aliphatic nature of the substituent. Comparing the discussed derivatives (K1–K3) to their analogs described in the literature, we can see a significant similarity in thermal properties, despite different functional groups in the substituents.
Thermogravimetric analysis was performed on Perkin Elmer Thermogravimetric Analyzer Pyris 1 TGA at a heating rate of 15 °C/min under nitrogen. The electronic spectra were measured on a ThermoScientific Evolution 220 UV/Vis spectrometer. Photoluminescence emission spectra were acquired using Hitachi Fluorescence Spectrophotometer F-7100 [19].

[2] = Dissolution in solvents for absorption/emission studies; assay type: physicochemical; conditions: non-polar toluene
Protocol: Absorption and emission studies were carried out for investigated compounds K1–K3 using solvents of different polarities. The presented molecules differ in the substituent in thiazole ring. To check the influence of the substituent in the discussed molecules, the tests were carried out on solutions with a concentration of 2.5 × 10^−5 mol/L. In the first step, absorption maxima (λabs) were determined. The measured data are shown in Table 3, Figure 3, Figures S1 and S2.
Each of the derivatives has at least two bands registered in the absorption spectra. The main bands between 320 and 370 nm can be attributed to the π→π* transition. The next one is the band […] 300 nm. In the case of the presented molecules, the solvatochromic effect associated with the polarity of the solvent is not observed in the absorption spectra. The same behavior is shown by the analogs described in the literature. In the next step, the emission maxima were determined. For the K3 molecule, spectra were recorded only in chloroform, ethanol, and DMSO. […] For the rest, λem was successfully determined in several solvents. By analyzing the fluorescence spectra, the influence of the polarity of the solvent on the obtained results can be observed. […] Moreover, the Stokes shift increases from non-polar to polar solvents (K3 30 nm, K1 69 nm, K2 70 nm). […]

Sequence of mushroom tyrosinase (C7FF04 1-392): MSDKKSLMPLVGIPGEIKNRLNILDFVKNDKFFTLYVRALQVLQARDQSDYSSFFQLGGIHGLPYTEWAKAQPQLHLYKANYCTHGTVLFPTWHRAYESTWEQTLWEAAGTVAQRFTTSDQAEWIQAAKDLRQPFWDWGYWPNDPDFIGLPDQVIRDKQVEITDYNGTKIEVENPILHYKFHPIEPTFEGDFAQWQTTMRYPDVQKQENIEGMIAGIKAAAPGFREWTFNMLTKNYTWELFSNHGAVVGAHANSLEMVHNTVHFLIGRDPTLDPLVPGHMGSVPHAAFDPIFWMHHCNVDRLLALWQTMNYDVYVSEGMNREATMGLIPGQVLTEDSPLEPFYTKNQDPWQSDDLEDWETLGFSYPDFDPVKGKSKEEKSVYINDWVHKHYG

| Inhibitory Mechanism (mushroom tyrosinase) | Vmax (mushroom tyrosinase) [mM/min] | T5 (temperature at 5% weight loss) [1] [°C] | T10 (temperature at 10% weight loss) [1] [°C] | solubility in toluene [2] | SMILES |
| --- | --- | --- | --- | --- | --- |
| Mixed | 0.2608 | 222 | 279 | – | C(=N\Nc1nc(C23CC4CC(CC(C4)C2)C3)cs1)/c1ccc(-n2c3ccccc3c3ccccc32)cc1 [K1, (E)-2-(2-(4-(9H-carbazol-9-yl)benzylidene)hydrazinyl)-4-(1-adamantyl)thiazole] |
| Mixed | 0.4078 | 231 | 252 | – | N#Cc1ccc(-c2csc(N/N=C/c3ccc(-n4c5ccccc5c5ccccc54)cc3)n2)cc1 [K2, (E)-4-(2-(2-(4-(9H-carbazol-9-yl)benzylidene)hydrazinyl)thiazol-4-yl)benzonitrile] |
| Mixed | 0.4718 | 244 | 271 | did not dissolve | O=[N+]([O-])c1ccc(-c2csc(N/N=C/c3ccc(-n4c5ccccc5c5ccccc54)cc3)n2)cc1 [K3, (E)-2-(2-(4-(9H-carbazol-9-yl)benzylidene)hydrazinyl)-4-(4-nitrophenyl)thiazole] |

— paper PMC12386811, “Novel Carbazole–Thiazole Conjugates: Synthesis and Biophysical Characterization” (International Journal of Molecular Sciences, 2025)
